One data set addresses T1, BaF3-ETV6-NTRK2 (Homo sapiens, UniProt Q16620).
T1 construct: fused on or other part: P41212 (Transcription factor ETV6)
The data set is described as follows: Cell proliferation inhibition (CCK-8), BaF3-ETV6-NTRK2 stable strain. Format: cell-based, mouse. To be noted: BaF3-ETV6-NTRK2, 72 hours. Put shortly:
(§1)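 Ba/F3 cells stably electroporated with ETV6-NTRK3, CD74-NTRK1 or ETV6-NTRK2, selected with G418 and grown without IL3, then cloned by limiting dilution.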

The target in the next data set is T2, TRKB (Homo sapiens, UniProt Q16620).
T2 construct: purchased life technologies PV3616
T2 sequence (Q16620 32-822): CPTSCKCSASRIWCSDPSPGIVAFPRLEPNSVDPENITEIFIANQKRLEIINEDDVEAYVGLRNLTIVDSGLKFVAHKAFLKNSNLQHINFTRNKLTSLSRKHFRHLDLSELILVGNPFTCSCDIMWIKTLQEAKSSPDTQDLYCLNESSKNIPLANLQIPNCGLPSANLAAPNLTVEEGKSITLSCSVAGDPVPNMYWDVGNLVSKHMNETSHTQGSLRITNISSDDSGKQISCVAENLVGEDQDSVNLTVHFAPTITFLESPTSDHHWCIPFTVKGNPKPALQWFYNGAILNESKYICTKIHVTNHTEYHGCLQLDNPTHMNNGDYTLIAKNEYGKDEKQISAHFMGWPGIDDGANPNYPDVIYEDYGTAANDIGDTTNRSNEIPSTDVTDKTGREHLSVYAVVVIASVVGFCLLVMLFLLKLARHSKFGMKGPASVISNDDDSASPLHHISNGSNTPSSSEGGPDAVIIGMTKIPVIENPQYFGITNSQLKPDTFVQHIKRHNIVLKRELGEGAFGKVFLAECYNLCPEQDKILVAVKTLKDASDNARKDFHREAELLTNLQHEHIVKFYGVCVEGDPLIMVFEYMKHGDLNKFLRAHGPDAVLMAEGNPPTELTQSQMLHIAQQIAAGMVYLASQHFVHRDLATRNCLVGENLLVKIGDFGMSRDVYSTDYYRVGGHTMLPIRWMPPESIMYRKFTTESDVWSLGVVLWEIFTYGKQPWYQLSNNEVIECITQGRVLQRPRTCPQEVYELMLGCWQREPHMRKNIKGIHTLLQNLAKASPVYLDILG
The data set can be described thus: Z′-LYTE kinase activity assay, TRKB. To be noted: ATP 25 uM. It counts as biochemical. In a few lines: (§2)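 Z′-LYTE FRET assay using Tyr 01 peptide substrate (2 μM) in 50 mM HEPES pH 7.5 with 10 mM MgCl2, 1 mM EGTA and 0.01% BRIJ-35. Inhibition was derived from the phosphorylation ratio versus negative control, with IC50 from concentration gradients.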

Another data set concerns the target T3, BaF3-CD74-NTRK1 (Homo sapiens, UniProt P04629).
T3 construct: fused on or other part: P04233 (HLA class II histocompatibility antigen gamma chain)
The data set is described as follows: Cell proliferation inhibition (CCK-8), BaF3-CD74-NTRK1 stable strain. It counts as cell-based, mouse. To be noted: BaF3-CD74-NTRK1, 72 hours. Put shortly: as §1

Data set [1] can be described thus: Rat hepatocyte stability experiment. It counts as in vitro ADME. As to the method: In William medium E, dilute the 37° C. rat hepatocyte suspension to an appropriate density (viable cell density=2×10^6 cells/mL). In addition, a 2× quantification solution (the concentration of the test compound was 2 μM) was additionally prepared in William's medium E. The hepatocyte solution and 2× quantification solution were preheated in a water bath of 37° C. 40 µL of the preheated hepatocyte solution (2×10^6 cells/mL) was added into the designated wells for 5, 15, 30, 60, and 120 min, and add 40 µL of the preheated 2× quantification solution and start timing. An assay plate was placed in a 37° C., 5% CO2 incubator with shaking at 110 rpm. At 5, 15, 30, 60, and 120 minutes, 240 μL of ACN containing IS was added to each well. The plate was then sealed and stored in a −35° C. freezer. After collecting at all time points, the plate was shaken for 2 minutes and then centrifuging was performed for 15 minutes at 6000 rmp. 100 μL of supernatant from each well was transferred to a 96-well sample plate containing 100 μL of water for LC/MS analysis, determination of compound concentrations, calculation of rate constants and half-lives.

Data set [2] is described as follows: Pharmacokinetic evaluation in SD rats. It counts as in vivo. As to the method:
Pharmacokinetics and oral bioavailability were tested in SD rats. According to the solubility of the drug, a single dose was administered orally, intravenously or by intraperitoneal injection. Animal blood samples were collected at different time points (0, 0.5, 1, 2, 4, 6, 8, and 24 hours), anticoagulated with heparin, and centrifuged to take the supernatant. Blood samples were analyzed by HPLC-MS. DAS2.1 was used for data analysis to detect half-life (T1/2), maximum blood concentration (Cmax), time to peak (Tmax), area under the drug-time curve (AUC), and bioavailability (BA) and other pharmacokinetic data.

The target in another data set is T4, TRKC (Homo sapiens, UniProt Q16288).
T4 construct: purchased life technologies PV3617
T4 sequence (Q16288 32-839): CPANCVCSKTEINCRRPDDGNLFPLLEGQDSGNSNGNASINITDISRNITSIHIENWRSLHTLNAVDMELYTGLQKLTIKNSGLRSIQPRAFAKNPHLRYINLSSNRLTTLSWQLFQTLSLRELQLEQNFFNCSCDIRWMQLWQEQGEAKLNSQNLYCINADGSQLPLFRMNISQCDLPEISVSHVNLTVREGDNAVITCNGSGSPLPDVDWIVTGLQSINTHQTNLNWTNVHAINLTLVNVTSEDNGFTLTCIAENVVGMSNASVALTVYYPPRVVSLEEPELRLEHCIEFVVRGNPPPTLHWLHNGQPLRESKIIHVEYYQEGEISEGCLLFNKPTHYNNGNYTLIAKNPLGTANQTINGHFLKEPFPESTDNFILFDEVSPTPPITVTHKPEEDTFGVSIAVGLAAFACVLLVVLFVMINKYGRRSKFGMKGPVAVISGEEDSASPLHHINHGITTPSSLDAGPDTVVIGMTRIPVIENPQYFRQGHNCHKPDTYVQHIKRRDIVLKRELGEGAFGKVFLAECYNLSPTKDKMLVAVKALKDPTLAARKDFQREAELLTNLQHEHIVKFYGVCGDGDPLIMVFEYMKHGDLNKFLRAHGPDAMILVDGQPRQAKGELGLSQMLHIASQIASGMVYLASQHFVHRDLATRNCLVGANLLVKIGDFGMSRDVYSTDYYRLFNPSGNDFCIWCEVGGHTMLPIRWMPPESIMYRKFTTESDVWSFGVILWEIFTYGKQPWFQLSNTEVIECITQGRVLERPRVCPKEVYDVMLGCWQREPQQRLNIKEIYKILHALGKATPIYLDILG
The data set is described as follows: Z′-LYTE kinase activity assay, TRKC. It counts as biochemical. The settings on record: ATP 50 uM. In a few lines:
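Recombinant TRK kinase tested in a Z′-LYTE FRET assay with 2 μM Tyr 01 peptide substrate in 50 mM HEPES pH 7.5, 10 mM MgCl2, 1 mM EGTA, 0.01% BRIJ-35. IC50 obtained by curve fitting.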

The target of the next data set is T5, BaF3-ETV6-NTRK3 (Homo sapiens, UniProt Q16288).
T5 construct: fused on or other part: P41212 (Transcription factor ETV6)
T5 sequence (Q16288 whole entry, the tested form may be a part): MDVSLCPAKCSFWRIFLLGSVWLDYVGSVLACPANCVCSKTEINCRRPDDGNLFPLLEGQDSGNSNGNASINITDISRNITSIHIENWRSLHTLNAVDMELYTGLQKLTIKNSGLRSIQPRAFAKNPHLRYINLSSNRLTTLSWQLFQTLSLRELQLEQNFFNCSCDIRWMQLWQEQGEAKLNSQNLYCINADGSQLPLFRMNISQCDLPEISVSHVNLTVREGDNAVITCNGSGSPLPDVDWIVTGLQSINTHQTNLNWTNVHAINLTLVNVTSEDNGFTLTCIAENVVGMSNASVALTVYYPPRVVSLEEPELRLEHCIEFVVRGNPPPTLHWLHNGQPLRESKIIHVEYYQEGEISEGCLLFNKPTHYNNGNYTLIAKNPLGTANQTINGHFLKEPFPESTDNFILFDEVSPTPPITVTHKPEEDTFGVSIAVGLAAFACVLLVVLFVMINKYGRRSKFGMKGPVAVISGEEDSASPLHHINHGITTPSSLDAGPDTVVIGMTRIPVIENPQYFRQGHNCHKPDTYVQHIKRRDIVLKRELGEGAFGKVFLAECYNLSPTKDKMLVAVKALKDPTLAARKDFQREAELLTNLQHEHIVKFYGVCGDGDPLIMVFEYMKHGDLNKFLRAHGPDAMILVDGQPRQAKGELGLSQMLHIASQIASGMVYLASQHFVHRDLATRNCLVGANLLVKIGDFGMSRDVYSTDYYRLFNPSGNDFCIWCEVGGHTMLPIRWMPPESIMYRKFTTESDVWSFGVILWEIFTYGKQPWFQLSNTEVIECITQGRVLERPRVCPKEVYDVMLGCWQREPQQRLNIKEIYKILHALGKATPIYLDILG
The data set can be described thus: Cell proliferation inhibition (CCK-8), BaF3-ETV6-NTRK3 stable strain. It counts as cell-based, mouse. To be noted: BaF3-ETV6-NTRK3, 72 hours. In a few lines:
as §1

For another data set, the target named is T6, TRKA (Homo sapiens, UniProt P04629).
T6 construct: purchased life technologies PV3144
T6 sequence (P04629 440-796 limits assumed): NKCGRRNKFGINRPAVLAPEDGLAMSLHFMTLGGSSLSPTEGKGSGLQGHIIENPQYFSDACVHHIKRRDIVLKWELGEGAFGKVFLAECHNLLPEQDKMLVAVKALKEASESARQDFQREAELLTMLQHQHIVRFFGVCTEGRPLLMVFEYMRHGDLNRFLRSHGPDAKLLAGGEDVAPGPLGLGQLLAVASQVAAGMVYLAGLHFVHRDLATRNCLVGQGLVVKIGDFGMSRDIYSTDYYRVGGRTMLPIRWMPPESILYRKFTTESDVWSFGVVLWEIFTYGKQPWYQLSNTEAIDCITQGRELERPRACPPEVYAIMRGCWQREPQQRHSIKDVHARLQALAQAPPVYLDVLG
The data set is described as follows: Z′-LYTE kinase activity assay, TRKA. Format: biochemical. To be noted: ATP 400 uM. Put shortly: as §2

The next data set concerns TRKs (TRK1, TRK2, TRK3). The data set is described as follows: Kinase activity on TRKs, summary statements. The settings on record: summary statement. Format: biochemical. The source says: Kinase activity assay: Z′-LYTE™ technology (detection by fluorescence, enzyme-conjugated format, based on the difference in sensitivity of phosphorylated and non-phosphorylated peptides to proteolytic cleavage) was applied, and using the principle of fluorescence resonance energy transfer (FRET), a Z′-LYTE™ FRET peptide substrate (Z′-LYTE™ Tyrosine 1 Peptide Substrate, Invitrogen, PV3190), and a secondary reaction were used to detect the inhibitory activity of the compounds on TRKs (TRK1, TRK2, TRK3) (life technologies, PV3144, PV3616, PV3617).
Enzymatic reaction: In a 384-well plate, 5 μL of an enzyme-substrate system (50 mM HEPES pH 7.5, 0.01% BRIJ-35, 10 mM MgCl2, 1 mM EGTA, 2 μM Tyr 01 Peptide Substrate) was added and 5 nL of compound (concentration gradient) was transferred thereto by using the echo520 ultramicro liquid pipetting system. After shaking for 10-20 min at room temperature, 200 nL, 12.5 nL and 25 nL of ATP (final concentrations are 400 uM, 25 uM and 50 uM, respectively) were transferred by using the echo520 ultramicro liquid pipetting system. After shaking and mixing, centrifuging was performed. A reaction was carried out at 30° C. in the dark for 1.5 hours.
Assay reaction: 2.54 of Development Solution (1:128 dilution) was added in each well, and incubated at 37° C. in the dark for 1 hour, and then 5 μL of Stop Reagent was added.
Plate reading: fluorescence signals were detected using a Perkin Elmer EnVision Multimode Plate Reader (excitation at 400 nm, and emission at 460 nm, and 535 nm).
Calculation: the inhibition rate of each well was calculated by the fully active well and control signal wells. The data were analyzed as follows:
Phosphorylation ratio=1−{(emission ratio×F100%−C100%)/[C0%−C100%+emission ratio×(F100%−F0%)]}×100;
Inhibition rate=100×(1−compound phosphorylation ratio/negative control phosphorylation ratio).
IC50 values were calculated by using GraphPad Prism 5.0 software.

The next data set concerns Ba/F3-TRK stable strains. The data set can be described thus: Cell proliferation of Ba/F3-TRK stable strains, summary statements. The settings on record: summary statement. It counts as cell-based, mouse. The protocol: The brief steps of stable strain construction are as follows: construct a pCDNA3.1(+) plasmid vector carrying genes such as CD74-NTRK1, ETV6-NTRK2 and ETV6-NTRK3; the plasmid was electroporated into Ba/F3 cells using the Amaxa® Cell Line Nucleofector® Kit V; 48 hours after electroporated, G418 with a final concentration of 1000 μg/ml was added for screening for two weeks, and then IL3 was removed, and continued screening to obtain polyclonal stable strains; then single clones were selected by a limiting dilution method. The stable strains were then identified using positive drugs, WB and gene sequencing; and the monoclonal clones that were identified as completely correct may be used for the study of cell proliferation inhibitory activity of inhibitors.
Cell proliferation inhibition activity study: the cells in the logarithmic growth phase were seeded into 96-well plates at 8000-12000 cells/well, and inhibitors at different concentrations (0-10 μM) were added the next day, and incubation was continued for 72 hours; then 10 μL of CCK-8 reagent was added to each well, and the incubation was continued for 1-3 hours; and then use a super microplate reader to measure their absorbance values at 450 nm and 650 nm. The half-inhibition concentration (IC50) was calculated using GraphPad Prism 8.0.0.

Each structure is given as a SMILES string.

In general, IC50 refers to the point on the concentration scale where inhibition reaches its midpoint. What is called half-life is the time in which the quantity being followed falls by half.

T3 sequence (P04629 510-796 limits assumed): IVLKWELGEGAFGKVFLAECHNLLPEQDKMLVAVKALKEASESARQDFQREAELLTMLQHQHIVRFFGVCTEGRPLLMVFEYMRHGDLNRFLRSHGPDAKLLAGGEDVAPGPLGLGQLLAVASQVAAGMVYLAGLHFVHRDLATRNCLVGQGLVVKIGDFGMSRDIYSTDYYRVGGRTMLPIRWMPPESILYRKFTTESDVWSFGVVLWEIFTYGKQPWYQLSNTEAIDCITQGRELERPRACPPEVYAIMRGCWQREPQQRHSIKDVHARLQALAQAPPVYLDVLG
T1 sequence (Q16620 538-822 limits assumed): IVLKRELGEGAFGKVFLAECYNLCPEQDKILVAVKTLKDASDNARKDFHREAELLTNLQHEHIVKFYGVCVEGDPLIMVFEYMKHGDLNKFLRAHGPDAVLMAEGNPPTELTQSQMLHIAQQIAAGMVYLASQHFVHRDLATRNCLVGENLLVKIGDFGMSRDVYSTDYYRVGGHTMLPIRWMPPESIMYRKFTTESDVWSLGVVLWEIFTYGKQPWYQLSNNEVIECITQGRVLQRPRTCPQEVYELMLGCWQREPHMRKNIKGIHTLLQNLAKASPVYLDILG

As to `O=S(=O)(Nc1ccc2[nH]nc(/C=C/c3ccccn3)c2c1)c1cc(F)cc(F)c1` [DYX-165, (E)-3,5-difluoro-N-(3-(2-(pyridin-2-yl)vinyl)-1H-indazol-5-yl)benzenesulfonamide], the IC50 on BaF3-ETV6-NTRK2 came to 0.0489 µM; against TRKB it was 0.0032 µM; on BaF3-CD74-NTRK1 it was 0.126 µM; against TRKC, 0.0024 µM; at BaF3-ETV6-NTRK3, 0.0437 µM; on TRKA, 0.0013 µM. Besides, in [1] (rat hepatocytes, 0 min, average value), the “Residual percentage (%) 0 min” value is reported as 100.00%. Further, the “Residual percentage (%) 5 min” value in data set [1] (rat hepatocytes, 5 min, average value) came out at 92.73%. Besides, the “Residual percentage (%) 15 min” value in data set [1] (rat hepatocytes, 15 min, average value) is listed as 84.16%. Further, the “Residual percentage (%) 30 min” value in data set [1] (rat hepatocytes, 30 min, average value) turned out to be 73.15%. The “Residual percentage (%) 60 min” value in [1] (rat hepatocytes, 60 min, average value) amounted to 59.81%. In addition, the “Residual percentage (%) 120 min” value in data set [1] (rat hepatocytes, 120 min, average value) is recorded as 58.02%. The “metabolic stability (in words)” value in [1] (rat hepatocytes, comparison with DYX244-1 and DYX318) is reported as “better metabolic stability”. For the same compound, the half-life at 1 μM in data set [1] (rat, rat hepatocytes (suspension)) was determined as 2.57 h. For the same compound, the Half-life in data set [2] (Sprague-Dawley, rat, plasma, oral administration, 25 mg/kg, read-out: Half-life (converted)) was 1.54 h. Moreover, in [2] (oral administration, 25 mg/kg), the “Area under the drug-time curve (0-t)” value worked out at 1035.70 µM·h. In addition, in data set [2] (oral administration, 25 mg/kg), the “Area under the drug-time curve (0-∞)” value came out at 1035.78 µM·h. Further, the “Maximum blood concentration” value in [2] (oral administration, 25 mg/kg) was found to be 91.56 µM. Also, the “Time to Peak” value in [2] (oral administration, 25 mg/kg) is recorded as 4.00 h. Further, the “oral absorption properties (in words)” value in [2] (oral, comparison with DYX244-1) is “better oral absorption properties”. Moreover, in the data set on TRKs (TRK1, TRK2, TRK3), the “inhibitory activity against TRKs kinase (in words)” value is listed as “strong inhibitory activity”. Moreover, the “inhibitory activity against cell proliferation of the Ba/F3-TRK stable strains (in words)” value in the data set on Ba/F3-TRK stable strains was “strong inhibitory activity”.
